From patent US20250313555A1, “2-SUBSTITUTED THIAZOLE AND BENZOTHIAZOLE COMPOSITIONS AND METHODS AS DUX4 INHIBITORS” (ALTAY THERAPEUTICS, INC., priority 2022, published 2025)

Test system: MBD3L2 RNA
Assay: RNA isolation and qPCR to determine MBD3L2 RNA levels in FSHD cells
Format: cell-based
Settings: 48 hrs
How it was run: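 FSHD cells were treated one day after seeding with a DUX4 inhibitor (11 μM or 3.6 μM) for 48 h. Total RNA was DNase-treated and reverse-transcribed with random hexamers and M-MLV. MBD3L2 was quantified by SYBR Green qPCR in triplicate against EEF1A as the reference gene.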

SMILES | qPCR MBD3L2 Inhib at 11 µM
O=C(CCCN1C(=O)CCC1=O)NC1CC(c2nc3ccccc3s2)C1 (centres unmarked) [Compound 89] | YES
O=C(CCCc1cnco1)Nc1ccc(Cc2nc3ccccc3s2)cc1 [Compound 66] | YES
CC(=O)NCCCC(=O)Nc1cc(Cl)cc(-c2nc3cc(F)ccc3s2)c1 [Compound 102] | YES
O=C(CCC1CCC(=O)N1)Nc1ccc(Cc2nc3ccccc3s2)cc1 (centres unmarked) [Compound 178] | YES
O=C(CCC1CCC(=O)N1)Nc1ccc(-c2nc3ccccc3s2)o1 (centres unmarked) [Compound 179] | YES
CC(=O)NC1CCC(C(=O)Nc2nc3ccccc3s2)C1 (centres unmarked) [Compound 131] | YES
O=C(CCCN1CCCC1=O)NCCCc1nc2ccccc2s1 [Compound 118] | YES
CC(=O)NCCCC(=O)N[C@H]1CC[C@H](c2nc3ccccc3s2)C1 [Compound 115] | YES
CN(C(=O)CCC1CCC(=O)N1)c1ccc(-c2nc3ccccc3s2)cc1 (centres unmarked) [Compound 177] | YES
C=C(C)NCCC(=C)Nc1cc(C)cc(Cc2nc3ccccc3s2)c1 [Compound 120] | YES
CC(=O)N[C@H]1CC[C@@H](C(=O)Nc2nc3ccccc3s2)C1 [Compound 183] | YES
CN(C(=O)CCCN1C(=O)CCC1=O)c1ccc(Cc2nc3ccccc3s2)cc1 [Compound 169] | YES
CC(=O)CCCCC(=O)Nc1ccc(-c2nccs2)cc1 [Compound 23] | YES
CC(=O)NCCCC(=O)NC1CCC(c2nc3ccccc3s2)CC1 (centres unmarked) [Compound 28] | YES
O=C(CCCN1C(=O)CCC1=O)NC1CCC(Cc2nc3ccccc3s2)C1 (centres unmarked) [Compound 158] | YES
CC(=O)NCCCNC(=O)c1ccc(-c2nc3ccccc3s2)o1 [Compound 149] | YES
O=C(CCCN1C(=O)CCC1=O)NC1CCCC1c1nc2ccccc2s1 (centres unmarked) [Compound 92] | YES
O=C(CCCN1C(=O)CCC1=O)NCCCc1nc2ccccc2s1 [Compound 91] | YES
CC(=O)NCCCC(=O)Nc1nc2ccccc2s1 [Compound 107] | YES
O=C(CCCN1CCCC1=O)NC1CCCC1c1nc2ccccc2s1 (centres unmarked) [Compound 117] | YES
O=C(CCCc1cccnc1)N[C@H]1CC[C@H](c2nc3ccccc3s2)CC1 [Compound 164] | YES
O=C(CCCN1C(=O)CCC1=O)Nc1nc2ccccc2s1 [Compound 108] | YES
CC(=O)NCCCC(=O)Nc1nc(-c2ccccc2)cs1 [Compound 126] | YES
O=C(CCCc1cccnc1)NC1CCC(c2nc3ccccc3s2)C1 (centres unmarked) [Compound 157] | YES
CC(=O)NCCCC(=O)Nc1cccc(-c2nc3ccccc3s2)c1 [Compound 71] | YES
O=C(CCCCN1C(=O)CCC1=O)N[C@H]1CC[C@@H](c2nc3ccccc3s2)CC1 [Compound 151] | YES
CC(=O)NCCCc1nc(CCCC(=O)Nc2ccc(-c3nc4cc(F)ccc4s3)cc2)co1 [Compound 138] | YES

SMILES | qPCR MBD3L2 Inhib at 11 µM
CN(C(=O)CCCN1C(=O)CCC1=O)c1ccc(-c2nc3cc(F)ccc3s2)cc1 [Compound 144] | YES
CC(=O)NCCCNC(=O)c1cc(C#N)cc(-c2nc3cc(F)ccc3s2)c1 [Compound 188] | YES
O=C(CCCc1cccnc1)N[C@H]1CC[C@@H](c2nc3ccccc3s2)CC1 [Compound 163] | YES
CC(=O)NCCCC(=O)N[C@H]1CC[C@@H](Cc2nc3ccccc3s2)CC1 [Compound 171] | YES
CC(=O)NCCCC(=O)N[C@H]1C[C@@H](c2nc3ccccc3s2)C1 [Compound 113] | YES
O=C(Cc1ccc(-c2nc3ccccc3s2)cc1)NCCN1CCCC1=O [Compound 119] | YES
CC(=O)NCCCC(=O)Nc1cc(Cl)cc(-c2nc3ccccc3s2)c1 [Compound 101] | YES
O=C(CCCN1C(=O)CCC1=O)NC1CCC(c2nc3ccccc3s2)C1 (centres unmarked) [Compound 90] | YES
O=C(CCCN1C(=O)CCC1=O)N[C@@H]1CC[C@@H](c2nc3ccccc3s2)C1 [Compound 162] | YES
CC(C)(NC(=O)CCCN1CCCC1=O)c1ccc(-c2nc3ccccc3s2)cc1 [Compound 110] | YES
O=C(NCCN1C(=O)CCC1=O)c1ccc(-c2nc3ccccc3s2)cc1 [Compound 22] | YES
CC(=O)NCCCC(=O)N[C@H]1CC[C@H](Cc2nc3ccccc3s2)CC1 [Compound 172] | YES
O=C(CCCN1C(=O)CCC1=O)N[C@H]1CC[C@H](c2nc3ccccc3s2)C1 [Compound 161] | YES
CC(=O)NC1CCC(C(=O)N[C@H]2CC[C@H](c3nc4ccccc4s3)CC2)C1 (some centres unmarked) [Compound 134] | YES
O=C(CCCN1C(=O)CCC1=O)N[C@H]1C[C@@H](c2nc3ccccc3s2)C1 [Compound 97] | YES
CC(=O)NCCCC(=O)Nc1ccc(-c2nccs2)cc1 [Compound 70] | YES
CC(=O)NCCCC(=O)N[C@H]1C[C@H](c2nc3ccccc3s2)C1 [Compound 112] | YES
CC(=O)N[C@@H]1CC[C@H](C(=O)Nc2nc3ccccc3s2)C1 [Compound 182] | YES
CC(=O)N[C@@H]1CC[C@@H](C(=O)Nc2nc3ccccc3s2)C1 [Compound 185] | YES
O=C(NCCCN1C(=O)CCC1=O)c1ccc(-c2nc3ccccc3s2)cc1 [Compound 7] | YES
CC(=O)NCCCNC(=O)C12CCC(c3nc4ccccc4s3)(CC1)CC2 [Compound 173] | YES
CC(=O)NCCCC(=O)NCCCc1nc2ccccc2s1 [Compound 106] | YES
O=C(CCN1CCCC1=O)Nc1ccc(Cc2nc3ccccc3s2)cc1 [Compound 8] | YES
CC(=O)NCCCC(=O)Nc1cc(C)cc(-c2nc3ccccc3s2)c1 [Compound 72] | YES
O=C(NCCc1cncnc1)c1ccc(-c2nc3ccccc3s2)cc1 [Compound 11] | YES
CC(=O)NCCCC(=O)N[C@@H]1CC[C@H](c2nc3ccccc3s2)C1 [Compound 114] | YES
